Counter-ions that a name gives are not always drawn.
Tests used:
[1] = test system: A549-Dual cells; assay: Single-point kinase inhibitor library screen: nLuc expression from NP-1+mRNA-nLuc in IFN-treated cells; format: cell-based, human; conditions: compound 50 μM pre-treatment, NP-1+mRNA 20 ng/well + IFN; for fold induction at 50 µM: Homo sapiens, read-out: fold nLuc over RNA + IFN
Experimental: (§1) The cells produce secreted embryonic alkaline phosphatase (SEAP), under the control of the interferon beta […] minimal promoter fused to five NF-κB binding sites. The cells also secrete lucia luciferase under the control of IFIT2 promoter.
To measure protein expression from mRNA, which is the primary readout for compound down selection, mRNA encoding a secreted version of nanoluciferase (mRNA-nLuc) was used. Protein expression was measured via a luminometer using standard techniques.
As additional criterion, expression in compound treated cells was compared relative to mRNA-transfected cells without IFN (“RNA only”) (data not shown).
A library of small molecule kinase inhibitors was screened for the ability to enhance expression of mRNA-encoded genes when co-delivered with mRNA.

[2] = test system: IFIT2; assay: Single-point screen: IFIT2 activation (Lucia luciferase, QUANTI-Luc); format: cell-based, human; conditions: A549-Dual cells, compound 50 μM pre-treatment, NP-1+mRNA 20 ng/well + IFN; for fold induction at 50 µM: Homo sapiens, 24 h, read-out: fold IFIT over IFN
Excerpt: as §1

[3] = test system: NF-κB; assay: Single-point screen: NFκB activation (SEAP reporter); format: cell-based, human; conditions: A549-Dual cells, compound 50 μM pre-treatment, NP-1+mRNA 20 ng/well + IFN; for fold induction at 50 µM: Homo sapiens, 24 h, read-out: fold NFkB over IFN
Excerpt: as §1

[4] = test system: A549-Dual cells; assay: Single-point screen: cell viability by CellTiter-Glo; conditions: A549-Dual cells incubated overnight with compound at 50 μM, then NP-1+mRNA 20 ng/well + IFN 1:50
Experimental: Finally, cell lysates were assayed with the CellTiter-GLO® assay (Promega) to obtain a luminescent-based measure of cell viability. In summary, the readouts from the high throughput screen included the primary measure of nLuc protein expression and three secondary readouts: IFIT, NF-κB and cell viability.
For each assay, A549-dual cells were plated at a seeding density of about 5×10^4 cells per well. Cells were incubated overnight with compounds at 50 microMolar (μM) in 1% v/v dimethyl sulfoxide (DMSO). For control wells, 1% DMSO was added to each well. After about 24 hours, the culture medium was removed, and cells were transfected with NP-1+mRNA at 20 ng/mRNA/well in Opti-MEM® media (Thermofisher). Interferon (IFN) was diluted to 1:50 in all test wells except for the RNA only wells and media only wells. Anti-IFN was diluted 1:1000 in “RNA+anti-IFN+IFN” wells. Cells were incubated for 4 hours, and culture medium was added to the Opti-MEM® medium. After 24 hours, assay supernatants were collected and analyzed for nLuc expression, IFIT2 (qLuc), and NFκB (qBLUE-SEAP™, InvivoGen) activation. Cells were then lysed, and cell viability was determined by CellTiter-Glo® (Promega) assay.

`Cc1cc(O)c(-c2ccc([C@@H](C)CN)cc2)c2c1[nH]c(=O)c1sccc12` [OTS514, 9-[4-[(2R)-1-aminopropan-2-yl]phenyl]-8-hydroxy-6-methyl-5H-thieno[2,3-c]quinolin-4-one] showed a fold induction at 50 µM [1] of 349, a fold induction at 50 µM [2] of 0.4 and a fold induction at 50 µM [3] of 0.35. The “% viability” value [4] was 66%.
In the case of `CN1CC[C@@H](c2c(O)cc(O)c3c(=O)cc(-c4ccc(C(F)(F)F)cc4Cl)oc23)[C@@H]1CO` [Voruciclib (hydrochloride), 2-[2-chloro-4-(trifluoromethyl)phenyl]-5,7-dihydroxy-8-[(2R,3S)-2-(hydroxymethyl)-1-methylpyrrolidin-3-yl]chromen-4-one], the fold induction at 50 µM [1] is reported as 274, the fold induction at 50 µM [2] is reported as 0.8 and the fold induction at 50 µM [3] is reported as 0.63.
`C[C@@]1(O)CCC[C@H]1n1c(=O)c(C(F)F)cc2cnc(NC3CCN(S(C)(=O)=O)CC3)nc21` [PF-06873600, 6-(difluoromethyl)-8-[(1R,2R)-2-hydroxy-2-methylcyclopentyl]-2-[(1-methylsulfonylpiperidin-4-yl)amino]pyrido[2,3-d]pyrimidin-7-one] was tested, and the fold induction at 50 µM [1] was 120, the fold induction at 50 µM [2] was 1.08 and the fold induction at 50 µM [3] was 0.83. The “% viability” value [4] was 55%.
With `Cc1cc(Nc2cc(Cl)nc(Oc3ccc([N+](=O)[O-])cc3)n2)n[nH]1` [Autophinib, 6-chloro-NV-(5-methyl-1H-pyrazol-3-yl)-2-(4-nitrophenoxy)pyrindin-4-amine] the “fold nLuc over RNA + IFN” value [1] was 128.89 fold, the “fold IFIT over IFN” value [2] was 1.09 fold and the “fold NFkB over IFN” value [3] was 0.78 fold. The “% viability” value [4] was 49%.
`Cc1ncc(-c2ccnc(Nc3ccc(S(C)(=O)=O)cc3)n2)n1C(C)C` [AZD-5438, 4-(1-isopropyl-2-methyl-1H-imidazol-5-yl)-N-(4-(methylsulfonyl)phenyl)pyrimidin-2-amine] was tested, and the fold induction at 50 µM [1] was 353, the fold induction at 50 µM [2] was 2.39 and the fold induction at 50 µM [3] was 0.38. For the same compound, the “% viability” value [4] was 46%.
`Cn1nccc1Nc1nccc(-c2ccn([C@H](CO)c3ccc(Cl)c(F)c3)c(=O)c2)n1` [Ravoxertinib hydrochloride, 1-[(1S)-1-(4-chloro-3-fluorophenyl)-2-hydroxyethyl]-4-[2-[(2-methylpyrazol-3-yl)amino]pyrimidin-4-yl]pyridin-2-one] gave a fold induction at 50 µM [1] of 162, a fold induction at 50 µM [2] of 0.24 and a fold induction at 50 µM [3] of 1.17. For the same compound, the “% viability” value [4] was 96%.
`CN1CC[C@H](c2c(O)cc(O)c3c(=O)cc(-c4ccc(C(F)(F)F)cc4Cl)oc23)[C@H]1CO` [(2S,3R)-Voruciclib (hydrochloride), 2-[2-chloro-4-(trifluoromethyl)phenyl]-5,7-dihydroxy-8-[(2S,3R)-2-(hydroxymethyl)-1-methylpyrrolidin-3-yl]chromen-4-one; hydrochloride] showed a fold induction at 50 µM [1] of 113, a fold induction at 50 µM [2] of 1.09 and a fold induction at 50 µM [3] of 0.26.
`Cc1cc(F)c(C(=O)Nc2cccc(-c3nncn3C(C)C)n2)cc1-n1cnc(C2CC2)c1` [Selonsertib, 5-(4-cycloproplirnidazol-1-yl)-2-fluoro-4-methyl-N-[6-(4-propan-2-yl-1,2,4-triazol-3-yl)pyridin-2-yl]benzamide] was tested, and the fold induction at 50 µM [1] was 112, the fold induction at 50 µM [2] was 1.43 and the fold induction at 50 µM [3] was 0.9.
For `O=C1Nc2ccccc2/C1=C/c1ccccn1` [GSK-3 inhibitor 1], the “fold nLuc over RNA + IFN” value [1] was 225.93 fold, the “fold IFIT over IFN” value [2] was 0.65 fold and the “fold NFkB over IFN” value [3] was 1.00 fold. The “% viability” value [4] was 90%.
With `O=C1NCCSc2c1sc1ccc(O)cc21` [kb NB 142-70, 9-hydroxy-3,4-dihydro-2H-[1]benzothiolo[2,3-f][1,4]thiazepin-5-one] the fold induction at 50 µM [1] was 187, the fold induction at 50 µM [2] was 2.31 and the fold induction at 50 µM [3] was 0.61. The “% viability” value [4] was 52%.
In the case of `CN(c1ccc(NC(=O)Nc2ccc(OC(F)(F)F)cc2)cc1)c1ccnc(Nc2cccc(S(N)(=O)=O)c2)n1` [GW806742X (hydrochloride), 1-[4-[methyl-[2-(3-sulfamoylanilino)pyrimidin-4-yl]amino]phenyl]-3-[4-(trifluoromethoxy)phenyl]urea], the fold induction at 50 µM [1] is reported as 842, the fold induction at 50 µM [2] is reported as 3.93 and the fold induction at 50 µM [3] is reported as 0.91. The “% viability” value [4] was 41%.
With `C[C@H](Nc1cc(-c2cnn(C)c2)cc(Nc2cnccn2)n1)c1ccc(F)cc1.Cl` [Ilginatinib hydrochloride, 6-N-[(1S)-1-(4-fluorophenyl)ethyl]-4-(1-methylpyrazol-4-yl)-2-N-pyrazin-2-ylpyridine-2,6-diamine; hydrochloride] the “fold nLuc over RNA + IFN” value [1] was 484.10 fold, the fold induction at 50 µM [2] was 3.17 and the fold induction at 50 µM [3] was 1.39.
For `C[C@H](Nc1cc(-c2cnn(C)c2)cc(Nc2cnccn2)n1)c1ccc(F)cc1` [Ilginatinib, 6-N-[(1S)-1-(4-fluorophenyl)ethyl]-4-(1-methylpyrazol-4-yl)-2-N-pyrazin-2-ylpyridine-2,6-diamine], the “fold nLuc over RNA + IFN” value [1] was 115.95 fold, the fold induction at 50 µM [2] was 1.89 and the fold induction at 50 µM [3] was 1.12.
For `Cn1nc(C(C)(C)C)cc1NC(=O)Nc1ccc(Oc2ccncc2)cc1` [MAPK13-IN-1, 1-(5-tert-buty-2-methylpyrazol-3-yl)-3-(4-pyridin-4-yloxyphenyl)urea], the “fold nLuc over RNA + IFN” value [1] was 207.89 fold, the “fold IFIT over IFN” value [2] was 1.93 fold and the “fold NFkB over IFN” value [3] was 0.66 fold. For the same compound, the “% viability” value [4] was 59%.
`CCN1CCN(Cc2ccc(NC(=O)Nc3ccc(Oc4cc(NC)ncn4)cc3)cc2C(F)(F)F)CC1` [AST 487, 1-[4-[(4-ethylpiperazin-1-yl)methyl]-3-(trifluoromethyl)phenyl]-3-[4-[6-(methylamino)pyrimidin-4-yl]oxyphenyl]urea] gave a fold induction at 50 µM [1] of 183, a fold induction at 50 µM [2] of 0.19 and a fold induction at 50 µM [3] of 0.14. The “% viability” value [4] was 32%.
For `CC[C@H](CO)Nc1nc(NCc2ccccc2)c2ncn(C(C)C)c2n1` [Seliciclib, (2R)-2-[[6-(benzylamino)-9-propan-2-ylpurin-2-yl]amino]butan-1-ol], the fold induction at 50 µM [1] was 118, the fold induction at 50 µM [2] was 1.32 and the fold induction at 50 µM [3] was 0.55. The “% viability” value [4] was 45%.
With `Cl.O=C(NC1CCNCC1)c1n[nH]cc1NC(=O)c1c(Cl)cccc1Cl` [AT7519 (Hydrochloride), 4-[(2,6-dichlorobenzoyl)amino]-N-piperidin-4-yl-1H-pyrazole-5-carboxamide; hydrochloride] the fold induction at 50 µM [1] was 123, the fold induction at 50 µM [2] was 0.88 and the fold induction at 50 µM [3] was 0.43. The “% viability” value [4] was 42%.
In the case of `Cc1cnc(-c2cnc(NCCNc3ccc(C#N)cn3)nc2-c2ccc(Cl)cc2Cl)[nH]1` [CHIR-99021 (monohydrochloride), 6-[2-[[4-(2,4-dichlorophenyl)-5-(5-methyl-1H-imidazol-2-yl)pyrimidin-2-yl]amino]ethylamino]pyridine-3-carbonitrile], the fold induction at 50 µM [1] is reported as 116, the fold induction at 50 µM [2] is reported as 0.35 and the fold induction at 50 µM [3] is reported as 0.71.
For `COc1ccc(-c2c[nH]c3nccc(-c4ccsc4)c23)c(OC)c1` [ARN-3236, 3-(2,4-dimethoxyphenyl)-4-thiophen-3-yl-1-pyrrolo[2,3-b]pyridine], the “fold nLuc over RNA + IFN” value [1] was 322.60 fold, the “fold IFIT over IFN” value [2] was 1.61 fold and the “fold NFkB over IFN” value [3] was 0.41 fold. The “% viability” value [4] was 33%.
`COc1ccc(CCNCc2ccc(OCc3ccc(Cl)nc3)c(OC)c2)cc1OC` [SBE13 (Hydrochloride)] was tested, and the “fold nLuc over RNA + IFN” value [1] was 179.07 fold, the “fold IFIT over IFN” value [2] was 0.32 fold and the “fold NFkB over IFN” value [3] was 0.73 fold. For the same compound, the “% viability” value [4] was 105%.
For `COCCOc1ccc(-c2cn(-c3ccccc3)c3nc[nH]c(=O)c23)cc1` [DMX-5804, 5-[4-(2-methoxyethoxy)phenyl]-7-phenyl-3H-pyrrolo[2,3-d]pyrimidin-4-one], the fold induction at 50 µM [1] was 267, the fold induction at 50 µM [2] was 0.4 and the fold induction at 50 µM [3] was 1.35. The “% viability” value [4] was 92%.
In the case of `COc1cc(Nc2ncc3ccn(-c4cccc(CCC#N)c4)c3n2)cc(OC)c1OC` [Casein Kinase II Inhibitor IV, 3-[3-[2-(3,4,5-trimethoxyanilino)pyrrolo[2,3-d]pyrimidin-7-yl]phenyl]propanenitrile], the fold induction at 50 µM [1] is reported as 126, the fold induction at 50 µM [2] is reported as 0.79 and the fold induction at 50 µM [3] is reported as 0.46. The “% viability” value [4] was 18%.
`Oc1cccc(Nc2ncc(F)c(Nc3cccc(O)c3)n2)c1` [Compound R112, 3-[[5-fluoro-2-(3-hydroxyanilino)pyrimidin-4-yl]amino]phenol] showed a fold induction at 50 µM [1] of 521, a fold induction at 50 µM [2] of 1.33 and a fold induction at 50 µM [3] of 1.16. The “% viability” value [4] was 76%.
`Cc1nc2c(NCc3cccc(S(C)(=O)=O)c3)nccn2c1-c1ccc(O)c(F)c1` [BF738735, 2-fluoro-4-[2-methyl-8-[(3-methylsulfonylphenyl)methylamino]imidazo[1,2-a]pyrazin-3-yl]phenol] showed a fold induction at 50 µM [1] of 239, a fold induction at 50 µM [2] of 0.37 and a fold induction at 50 µM [3] of 0.62. The “% viability” value [4] was 93%.
With `Cc1[nH]ncc1-c1cc2nc([C@H]3CC4CCN3CC4)[nH]c(=O)c2s1` [(R)-Simurosertib] the “fold nLuc over RNA + IFN” value [1] was 200.44 fold, the “fold IFIT over IFN” value [2] was 1.84 fold and the “fold NFkB over IFN” value [3] was 1.33 fold. The “% viability” value [4] was 86%.

Source: patent US20240252688A1, “COMPOSITIONS AND METHODS FOR ENHANCED PROTEIN PRODUCTION” (HDT Bio Corp., priority 2021, published 2024)
